Test results from patent US7553966B2, “Glucocorticoid mimetics, methods of making them, pharmaceutical compositions, and uses thereof” (Boehringer Ingelheim Pharmaceuticals, Inc., priority 2002, dated 2009).

Columns and labels:
[1] = target: T1, human glucocorticoid receptor (GR) complex (Homo sapiens, UniProt P04150); assay: Glucocorticoid Receptor Competitive Binding Assay (fluorescence polarization, TAMRA-labeled dexamethasone probe); details: qualitative statement; competition with TAMRA-labeled dexamethasone
T1 construct: made in house; host or cells: insect expression system (baculovirus lysate)
T1 sequence (P04150 1-777): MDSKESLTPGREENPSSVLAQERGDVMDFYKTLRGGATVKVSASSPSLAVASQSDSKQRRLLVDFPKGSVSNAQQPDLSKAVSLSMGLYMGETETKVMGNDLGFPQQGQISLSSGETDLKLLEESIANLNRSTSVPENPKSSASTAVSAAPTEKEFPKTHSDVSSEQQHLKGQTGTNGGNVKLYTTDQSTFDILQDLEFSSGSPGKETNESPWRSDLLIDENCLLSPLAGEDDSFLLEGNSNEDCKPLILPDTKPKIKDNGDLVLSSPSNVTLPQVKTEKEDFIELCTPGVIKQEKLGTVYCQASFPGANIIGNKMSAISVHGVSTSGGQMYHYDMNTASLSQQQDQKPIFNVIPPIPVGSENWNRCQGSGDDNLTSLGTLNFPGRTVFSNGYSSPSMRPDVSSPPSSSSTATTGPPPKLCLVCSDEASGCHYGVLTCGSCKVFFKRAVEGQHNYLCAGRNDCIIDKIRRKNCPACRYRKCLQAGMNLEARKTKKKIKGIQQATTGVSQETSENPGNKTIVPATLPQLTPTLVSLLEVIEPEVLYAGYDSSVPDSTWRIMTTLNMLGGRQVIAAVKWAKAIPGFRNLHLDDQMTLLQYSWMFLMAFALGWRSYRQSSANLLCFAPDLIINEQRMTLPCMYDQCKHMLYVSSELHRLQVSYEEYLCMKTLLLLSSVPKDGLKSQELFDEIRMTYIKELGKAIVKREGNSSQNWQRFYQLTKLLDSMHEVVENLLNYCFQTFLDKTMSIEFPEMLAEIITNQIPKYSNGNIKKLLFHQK
How it was run: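 Competition with TAMRA-dexamethasone for a human GR complex expressed in insect cells, read by fluorescence polarization. Buffer was 10 mM TES, 50 mM KCl, 20 mM Na2MoO4, 1.5 mM EDTA, 0.04% CHAPS, 10% glycerol, 1 mM DTT, pH 7.4.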

glucocorticoid receptor = assay: Glucocorticoid Receptor Cell Assays (agonist activity in one or more of the above assays); assay type: cell-based; details: qualitative statement; assay not specified

activity in the GR binding assay [1] | Compound | activity as agonists of the glucocorticoid receptor function in one or more of the above assays (glucocorticoid receptor)
potent activity | Cc1ccc(F)cc1C(C)(C)CC(O)(Cc1cc2cc(C#N)ccc2[nH]1)C(F)(F)F (stereo not drawn) [2-[4-(5-Fluoro-2-methylphenyl)-2-hydroxy-4-methyl-2-trifluoromethylpentyl]-1H-indole-5-carbonitrile] | potent agonists
potent activity | Cc1ccc(F)cc1C(C)(C)CC(O)(Cc1cc2c(C)cc(C#N)cc2[nH]1)C(F)(F)F (stereo not drawn) [2-[4-(5-Fluoro-2-methylphenyl)-2-hydroxy-4-methyl-2-trifluoromethylpentyl]-4-methyl-1H-indole-6-carbonitrile] | potent agonists
potent activity | CC(C)(CC(O)(Cc1cc2ccncc2[nH]1)C(F)(F)F)c1cccc2c1OCC2 (stereo not drawn) [4-(2,3-Dihydrobenzofuran-7-yl)-1,1,1-trifluoro-4-methyl-2-(1H-pyrrolo[2,3-c]pyridin-2-ylmethyl)pentan-2-ol] | potent agonists
potent activity | CC(C)(CC(O)(Cc1cc2cnccc2[nH]1)C(F)(F)F)c1cccc2c1OCC2 (stereo not drawn) [4-(2,3-Dihydrobenzofuran-7-yl)-1,1,1-trifluoro-4-methyl-2-(1H-pyrrolo[3,2-c]pyridin-2-ylmethyl)pentan-2-ol] | potent agonists
potent activity | CC(C)(CC(O)(Cc1ccnc2ccccc12)C(F)(F)F)c1cccc2c1OCC2 (stereo not drawn) [4-(2,3-Dihydrobenzofuran-7-yl)-1,1,1-trifluoro-4-methyl-2-quinolin-4-ylmethylpentan-2-ol] | potent agonists
potent activity | CC(C)(CC(O)(Cc1cc2ccccc2[nH]1)C(F)(F)F)c1cccc2c1OCC2 (stereo not drawn) [4-(2,3-dihydrobenzofuran-7-yl)-1,1,1-trifluoro-2-(1H-indol-2-ylmethyl)-4-methylpentan-2-ol] | potent agonists
potent activity | CC(C)(CC(O)(Cc1cc2ccccc2[nH]1)C(F)(F)F)c1cc(Br)cc2c1OCC2 (stereo not drawn) [4-(5-Bromo-2,3-dihydrobenzofuran-7-yl)-1,1,1-trifluoro-2-(1H-indol-2-ylmethyl)-4-methylpentan-2-ol] | potent agonists
potent activity | CC(C)(CC(O)(Cc1ccnc2ccccc12)C(F)(F)F)c1cc(Br)cc2c1OCC2 (stereo not drawn) [4-(5-Bromo-2,3-dihydrobenzofuran-7-yl)-1,1,1-trifluoro-4-methyl-2-quinolin-4-ylmethylpentan-2-ol] | potent agonists
potent activity | COc1ccc(Br)cc1C(C)(C)CC(O)(Cc1cc2ccccc2[nH]1)C(F)(F)F (stereo not drawn) [4-(5-Bromo-2-methoxyphenyl)-1,1,1-trifluoro-2-(1H-indol-2-ylmethyl)-4-methylpentan-2-ol] | potent agonists
potent activity | COc1ccc(Br)cc1C(C)(C)CC(O)(Cc1ccnc2ccccc12)C(F)(F)F (stereo not drawn) [4-(5-Bromo-2-methoxyphenyl)-1,1,1-trifluoro-4-methyl-2-quinolin-4-ylmethylpentan-2-ol] | potent agonists
potent activity | COc1cc(F)c(Br)cc1C(C)(C)CC(O)(Cc1ccnc2ccccc12)C(F)(F)F (stereo not drawn) [4-(5-Bromo-4-fluoro-2-methoxyphenyl)-1,1,1-trifluoro-4-methyl-2-quinolin-4-ylmethylpentan-2-ol] | potent agonists
potent activity | CC(C)(CC(O)(Cc1ccnc2ccccc12)C(F)(F)F)c1cc(Br)c2c(c1)CCO2 (stereo not drawn) [4-(7-Bromo-2,3-dihydrobenzofuran-5-yl)-1,1,1-trifluoro-4-methyl-2-quinolin-4-ylmethylpentan-2-ol] | potent agonists
potent activity | CC(C)(CC(O)(Cc1ccnc2ccccc12)C(F)(F)F)c1cc(Br)ccc1O (stereo not drawn) [4-Bromo-2-(4,4,4-trifluoro-3-hydroxy-1,1-dimethyl-3-quinolin-4-ylmethylbutyl)phenol] | potent agonists
potent activity | CC(C)(CC(O)(Cc1cc2ccncc2[nH]1)C(F)(F)F)c1cc(F)ccc1O (stereo not drawn) [4-Fluoro-2-[4,4,4-trifluoro-3-hydroxy-1,1-dimethyl-3-(1H-pyrrolo[2,3-c]pyridin-2-ylmethyl)butyl]phenol] | potent agonists
potent activity | CC(C)(CC(O)(Cc1cc2cnccc2[nH]1)C(F)(F)F)c1cc(F)ccc1O (stereo not drawn) [4-Fluoro-2-[4,4,4-trifluoro-3-hydroxy-1,1-dimethyl-3-(1H-pyrrolo[3,2-c]pyridin-2-ylmethyl)butyl]phenol] | potent agonists
potent activity | Cc1cccc2[nH]c(CC(O)(CC(C)(C)c3cc(F)ccc3O)C(F)(F)F)cc12 (stereo not drawn) [4-Fluoro-2-[4,4,4-trifluoro-3-hydroxy-1,1-dimethyl-3-(4-methyl-1H-indol-2-ylmethyl)butyl]phenol] | potent agonists
potent activity | CC(C)(CC(O)(Cc1ccnc2ccccc12)C(F)(F)F)c1ccc(F)cc1O (stereo not drawn) [5-Fluoro-2-(4,4,4-trifluoro-3-hydroxy-1,1-dimethyl-3-quinolin-4-ylmethylbutyl)phenol] | potent agonists
potent activity | CC(C)(CC(O)(Cc1cc2ccncc2[nH]1)C(F)(F)F)c1ccc(F)cc1O (stereo not drawn) [5-Fluoro-2-[4,4,4-trifluoro-3-hydroxy-1,1-dimethyl-3-(1H-pyrrolo[2,3-c]pyridin-2-ylmethyl)butyl]phenol] | potent agonists
